In brackets after ≈: the same amount, converted by molar mass. Read-outs that look alike come from different tables or passages of the source.
What was measured:
E. faecalis [1] = test: Minimum Inhibitory Concentration (MIC) assay, E. faecalis; type: cell-based, Enterococcus faecalis; conditions: for MIC: Enterococcus faecalis, read-out: MIC for E. faecalis; for Growth inhibition of the pathogen of interest compared to the compound of Example 14 in WO 2018/229141: conclusion from Table 3 (E. faecalis and MRSA)
Protocol: (§1) The cultures (200 μl) were incubated at 37° C. for 24 h. […] The MIC was measured in micromolar concentration, i.e. μM. Objectively, this was determined by measuring the optical density (i.e. OD) of the test cultures at 600 nm using a spectrophotometer. As used herein, OD600 stands for optical density at a wavelength of 600 nm (i.e. 600 nanometers).

MRSA [2] = test: Minimum Inhibitory Concentration (MIC) assay, MRSA; type: cell-based, Methicillin-resistant Staphylococcus aureus; conditions: Staphylococcus aureus, MRSA, 24 h, read-out: MIC for MRSA
Protocol: as §1

E. faecalis OG1RF = test: Combined activity with gentamicin, vancomycin or ampicillin, E. faecalis OG1RF; type: cell-based, Enterococcus faecalis; conditions: gentamicin 16 μg/ml; for Synergistic effect when combined with gentamicin: 24 h; for E. faecalis activity, combination with gentamicin compared to gentamicin alone, compound alone and comparative example alone / E. faecalis activity, combination with gentamicin compared to the combination of the comparative example and gentamicin: subinhibitory compound 1-4 μM, OD600 24 h
Protocol: […]. The concentrations used in the experiments with E. faecalis OG1RF were 16 μg/ml gentamicin, 1 μg/ml vancomycin or 1 μg/ml ampicillin. In experiments where combinations were tested against MRSA 1369, 0.05 μg/ml gentamicin, 1 μg/ml vancomycin or 16 μg/ml ampicillin was used.
Bacterial cultures (190 μl) at a starting OD=0.001 at OD600 were incubated together with either subinhibitory concentrations of gentamicin/vancomycin/ampicillin or compound alone, or a combination of the two. The cultures (200 μl) were incubated at 37° C. for 24 h. A control sample without compound and gentamicin/vancomycin/ampicillin but containing compound vehicle (DMSO) and gentamicin/vancomycin/ampicillin vehicle (MQ water) was performed the same way. After 24 h, the effect on bacterial growth compared to untreated control samples was determined by measuring optical density at 600 nm with a spectrophotometer.
[…]. MIC/MBC values for the compounds administered alone are also shown for comparison. Unless otherwise stated, the compound was provided in a concentration of 1 μM.

MRSA [3] = test: Minimum Bactericidal Concentration (MBC) assay, MRSA; conditions: Staphylococcus aureus, MRSA
E. faecalis [4] = test: Minimum Bactericidal Concentration (MBC) assay, E. faecalis; conditions: Enterococcus faecalis, read-out: MBC for E. faecalis
[5] = 24 h, Table 3, compound alone, no antibiotic, 24 h, 37° C., OD600, first figure of MIC/MBC, n.d. = activity not observed at the concentrations tested
[6] = Table 4, compound administered alone, first figure of MIC/MBC, n.d. = activity not observed
[7] = Table 3, compound alone, no antibiotic, 37° C., OD600, first figure of MIC/MBC, n.d. = activity not observed at the concentrations tested
[8] = compound 1 μM, n.d. = activity not observed
[9] = read-out: MBC for MRSA, Table 3, compound alone, no antibiotic, MIC cultures plated on BHI, second figure of MIC/MBC, n.d. = activity not observed at the concentrations tested

| SMILES | MIC (E. faecalis [1]; [5]) [µM] | MIC (MRSA [2]; [7]) [µM] | Growth inhibition of the pathogen of interest compared to the compound of Example 14 in WO 2018/229141 (E. faecalis [1]; compound alone) | MBC (MRSA [3]; [9]) [µM] | also measured |
| --- | --- | --- | --- | --- | --- |
| Cc1cccc([C@@H]2CC3(C(=O)O)C2Sc2c(C4CC4)c(Cc4cccc5ccccc45)cc(=O)n23)c1 (stereo partly shown) [Example 19A] |  |  | substantially similar extent or to a higher extent |  | MIC (E. faecalis [1]; 24 h): 7.5 µM (≈ 3.7 µg/mL); MIC (E. faecalis [1]): 7.5 µM (≈ 3.7 µg/mL); MIC (MRSA [2]): 5 µM (≈ 2.47 µg/mL); Synergistic effect when combined with gentamicin (E. faecalis OG1RF; [8]): Yes; MBC (MRSA [3]; read-out: MBC for MRSA): 10 µM (≈ 4.94 µg/mL); MBC (E. faecalis [4]): 25 µM (≈ 12.3 µg/mL) |
| O=C(O)C12C[C@@H](Sc3ccccc3)C1Sc1c(C3CC3)c(Cc3cccc4ccccc34)cc(=O)n12 (stereo partly shown) [Example 27] |  | 10 (≈ 5.12 µg/mL) |  |  |  |
| O=C(O)C12C[C@H](Sc3ccccc3)C1Sc1c(C3CC3)c(Cc3cccc4ccccc34)cc(=O)n12 (stereo partly shown) [Example 28] |  | 25 (≈ 12.8 µg/mL) |  |  |  |
| COc1c(Cc2cccc3ccccc23)c(N(C)C)c(=O)n2c1SC1[C@H](c3cccc(C(F)(F)F)c3)CC12C(=O)O (stereo partly shown) [Example 29] | 25 (≈ 14.5 µg/mL) | 7.5 (≈ 4.35 µg/mL) |  | 7.5 (≈ 4.35 µg/mL) |  |
| O=C(O)C12C[C@@H](c3c(Cl)cccc3Cl)C1Sc1c(C3CC3)c(Cc3cc4ccccc4s3)cc(=O)n12 (stereo partly shown) [Example 34] |  | 5 (≈ 2.77 µg/mL) |  |  |  |
| O=c1cc(Cc2cccc3ccccc23)c(C2CC2)c2n1C(CCB(O)O)CS2 (stereo not shown) [Example 35] |  | 50 (≈ 20.3 µg/mL) |  |  | OD600 at 24 h when combined with gentamicin (E. faecalis OG1RF; compound 25 μM): OD600 = 0; Synergistic effect when combined with gentamicin (E. faecalis OG1RF; compound 25 μM): Yes |
| O=c1cc(Cc2cccc3ccccc23)c(-c2cccc(C(F)(F)F)c2)c2n1C(CCB(O)O)CS2 (stereo not shown) [Example 37] |  | 50 (≈ 25.5 µg/mL) |  |  | OD600 at 24 h when combined with gentamicin (E. faecalis OG1RF; compound 10 μM): OD600 = 0; Synergistic effect when combined with gentamicin (E. faecalis OG1RF; compound 10 μM): Yes |

Second part, led by results:

| MIC (E. faecalis [1]; [5]) [µM] | MIC (MRSA [2]; [7]) [µM] | SMILES | Growth inhibition of the pathogen of interest compared to the compound of Example 14 in WO 2018/229141 (E. faecalis [1]; compound alone) | MBC (MRSA [3]; [9]) [µM] | also measured |
| --- | --- | --- | --- | --- | --- |
| 4 (≈ 2.23 µg/mL) | 3 (≈ 1.68 µg/mL) | O=C(O)C12C[C@@H](c3cccc(Br)c3)C1Sc1c(C3CC3)c(Cc3cccc4ccccc34)cc(=O)n12 (stereo partly shown) [Example 17] | substantially similar extent or to a higher extent | 7.5 (≈ 4.19 µg/mL) | MIC (E. faecalis [1]; [6]): 4 µM (≈ 2.23 µg/mL); OD600 at 24 h when combined with gentamicin (E. faecalis OG1RF; compound 1 μM): OD 600 = 0; Synergistic effect when combined with gentamicin (E. faecalis OG1RF; [8]): Yes; E. faecalis activity, combination with gentamicin compared to gentamicin alone, compound alone and comparative example alone (E. faecalis OG1RF): much larger extent; E. faecalis activity, combination with gentamicin compared to the combination of the comparative example and gentamicin (E. faecalis OG1RF): much larger extent; MBC (E. faecalis [4]): 25 µM (≈ 14 µg/mL) |
| 4 (≈ 2.21 µg/mL) | 4 (≈ 2.21 µg/mL) | CCCOc1ccc([C@@H]2CC3(C(=O)O)C2Sc2c(C4CC4)c(Cc4cccc5ccccc45)cc(=O)n23)cc1C (stereo partly shown) [Example 22] | substantially similar extent or to a higher extent | 4 (≈ 2.21 µg/mL) | E. faecalis activity, combination with gentamicin compared to gentamicin alone, compound alone and comparative example alone (E. faecalis OG1RF): much larger extent; E. faecalis activity, combination with gentamicin compared to the combination of the comparative example and gentamicin (E. faecalis OG1RF): much larger extent |
| 3 (≈ 1.7 µg/mL) | 3 (≈ 1.7 µg/mL) | CCCCOc1ccc([C@@H]2CC3(C(=O)O)C2Sc2c(C4CC4)c(Cc4cccc5ccccc45)cc(=O)n23)cc1C (stereo partly shown) [Example 23] | substantially similar extent or to a higher extent | 5 (≈ 2.83 µg/mL) | MIC (E. faecalis [1]; [6]): 3 µM (≈ 1.7 µg/mL); OD600 at 24 h when combined with gentamicin (E. faecalis OG1RF; compound 1 μM): OD600 = 0; Synergistic effect when combined with gentamicin (E. faecalis OG1RF; [8]): Yes |
|  | 5 (≈ 2.63 µg/mL) | Cc1cc(C)cc([C@@H]2CC3(C(=O)O)C2Sc2c(C4CC4)c(Cc4cccc(Cl)c4Cl)cc(=O)n23)c1 (stereo partly shown) [Example 31] |  |  |  |
